Measurements: US20100160255A1, “SPIRO-CYCLIC COMPOUND” (Takeda Pharmaceutical Company Limited, priority 2005, published 2010)
Where two headings read alike, the source gives them in different places.

Experiments:
human ACC1 = molecular target: T1, human ACC1 (Homo sapiens, UniProt Q13085); assay: ACC1 inhibitory activity (malachite green absorbance assay, recombinant enzyme); format: biochemical
T1 construct: made in house; host or cells: SF-9 insect cells, recombinant baculovirus BAC-ACC1
Protocol: The ACC1 inhibitory activity of the compound of the present invention was evaluated by the following method.
(§1) Human ACC1 gene was cloned by PCR using human liver cDNA library (Clontech) as a template, and Primer 1 and Primer 2 shown below. Primer 1 and Primer 2 were prepared by adding recognition sequence of restriction enzymes SalI and NotI based on the information of the base sequence (Genbank Accession U19822) of human ACC1 gene.
(§2) PCR was performed using Pyrobest DNA polymerase (TAKARA BIO INC.). The obtained PCR product was cloned to pT7 Blue vector (Novagen) which was, after confirmation of the base sequence, digested with restriction enzymes SalI and NotI. The obtained DNA fragment was inserted into pFAST-BacHTc (Invitrogen) digested with restriction enzymes SalI and NotI to give expression plasmid ACC1/pFAST-BacHTc.
Using the expression plasmid and BAC-TO-BAC Baculovirus Expression System (Invitrogen), virus stock BAC-ACC1 of recombinant Baculovirus was prepared.
(§3) SF-9 cells (Invitrogen) were sown at 1×10^6 cells/mL to insect cell culture medium (1 L, Sf-900II SFM medium (Invitrogen) containing 10% fetal bovine serum (Trace), 50 mg/L gentamicin (Invitrogen) and 0.1% Pluronic F-68 (Invitrogen)), and shaking culture was performed using a 2 L volume Erlenmeyer flask at 27° C., 100 rpm.
After culturing for 24 hr, the recombinant Baculovirus BAC-ACC1 (10 mL) was added, and the mixture was further cultured for 3 days. The culture medium was centrifuged at 1000×g for 5 min to give virus-infected cells. The infected cells were washed with phosphate buffered saline (Invitrogen) and centrifuged under the same conditions, and the obtained cells were cryopreserved at −80° C.
The cryopreserved cells were thawed in ice, suspended in 25 mM HEPES buffer (100 mL, pH 7.5) containing 10% Glycerol, 0.13 M NaCl, 1 mM EDTA, 25 mM sodium β-glycerophosphate, 1 mM sodium orthovanadate, added with Complete Protease Inhibitor (Boehringer). The obtained suspension was homogenized 3 times with a Polytron homogenizer (Kinematica) at 20,000 rpm for 30 seconds. The obtained cell disrupt solution was clarified by centrifugation at 185700×g for 50 min and filtrated using a 0.45 μm filter. The filtrate was passed through a column packed with Ni-NTA Super Flow Gel (QIAGEN, 12 mL) at a flow rate of about 5 mL/min. The column was washed with buffer A (50 mM HEPES containing 0.3M NaCl, pH 7.5), further washed with buffer A containing 20 mM Imidazole, and eluted with buffer A containing 100 mM Imidazole. The eluate was concentrated with Vivaspin 20 (Vivascience) having a molecular weight cut off of 30 K. The obtained concentrate was dialyzed using Sephadex G-25 (Amersham Bioscience K.K., 358 mL) equilibrated with 50 mM HEPES (pH7.5) containing 10 mM MgCl2, 2 mM dithiothreitol, 10 mM tripotassium citrate and 0.3M NaCl. The dialysate was concentrated with Vivaspin 20 (Vivascience) having a molecular weight cut off of 30 K and the concentrate was filtered through a 0.22 μm filter to give ACC1. The obtained ACC1 was cryopreserved at −80° C.
ACC1 (0.93 mg/ml) obtained in (2) above was diluted to a concentration of 8 μg/ml with an enzyme reaction buffer (50 mM HEPES (pH7.5), 10 mM MgCl2, 10 mM tripotassium citrate, 2 mM dithiothreitol, 0.75 mg/ml fatty acid free BSA), and added to each well of a 384 well assay plate (Nunc 265196) by 10 μl. […]

human ACC2 = molecular target: T2, human ACC2 (Homo sapiens, UniProt O00763); assay: ACC2 inhibitory activity (malachite green absorbance assay, recombinant ACC2(Nd)); format: biochemical
T2 construct: made in house; host or cells: SF-9 insect cells, recombinant baculovirus BAC-ACC2(Nd)
Protocol: The ACC2 inhibitory activity of the compound of the present invention was evaluated by the following method.
as §1, with “ACC2” for “ACC1”, “skeletal muscle” for “liver”, “XbaI” for “NotI”, “U89344)” for “U19822)”
as §2, with “XbaI.” for “NotI.”, “pFAST-BacHTa” for “pFAST-BacHTc”, “XbaI” for “NotI”, “ACC2/pFAST-BacHTa.” for “ACC1/pFAST-BacHTc.”
A plasmid for expression of ACC2 free of mitochondrial targeting sequence was prepared by PCR using the expression plasmid as a template, and Primer 3 and Primer 4 shown below.
as §2, with “AflII.” for “NotI.”, “pFAST-BacHTa” for “pFAST-BacHTc”, “AflII” for “NotI”, “ACC2mito7/pFAST-BacHTa.” for “ACC1/pFAST-BacHTc.”
Using the expression plasmid and BAC-TO-BAC Baculovirus Expression System (Invitrogen), virus stock BAC-ACC2 of recombinant Baculovirus (N terminal deletion (hereinafter Nd)) was prepared.
as §3, with “0.5×10^6” for “1×10^6”, “(2” for “(1”, “Wave Bioreactor (Wave) under the conditions of” for “2 L volume Erlenmeyer flask at”, “20 rpm, rocking angle of 6° and oxygen concentration of 30%.” for “100 rpm.”
On day 4 of the culture, 3 L of an insect cell culture medium was added, the rocking angle was set to 8°, and the cells were further cultured. On day 5 of the culture, the recombinant Baculovirus BAC-ACC2(Nd) (100 mL) was added, 5 L of the insect cell culture medium was further added, the rocking angle was set to 11°, and the cells were cultured for 3 days. The culture medium was centrifuged at 1000×g for 10 min to give virus-infected cells. The infected cells were washed with phosphate buffered saline (Invitrogen) and centrifuged under the same conditions, and the obtained cells were cryopreserved at −80° C.
The cryopreserved cells were thawed in ice, suspended in 25 mM HEPES buffer (900 mL, pH 7.5) containing 10% Glycerol, 0.13 M NaCl, 1 mM EDTA, 25 mM sodium β-glycerophosphate, 1 mM sodium orthovanadate, added with Complete Protease Inhibitor (Boehringer). The obtained suspension was homogenized 3 times with a Polytron homogenizer (Kinematica) at 20,000 rpm for 30 seconds. The obtained cell disrupt solution was clarified by centrifugation at 31000×g for 60 min and filtrated using a 0.45 μm filter. The filtrate was passed through a column packed with Ni-NTA Super Flow Gel (QIAGEN, 60 mL) at a flow rate of about 5 mL/min. The column was washed with buffer A (50 mM HEPES containing 0.3M NaCl, pH 7.5), further washed with buffer A containing 20 mM Imidazole, and eluted with buffer A containing 100 mM Imidazole. The eluate was concentrated with Vivaspin 20 (Vivascience) having a molecular weight cut off of 30 K. The obtained concentrate was dialyzed against 50 mM HEPES (pH7.5) containing 10 mM MgCl2, 2 mM dithiothreitol, 10 mM tripotassium citrate and 0.3M NaCl. The dialysate was filtered through a 0.22 μm filter to give ACC2(Nd). The obtained ACC2(Nd) was cryopreserved at −80° C. […]

[1] = Experimental Example 3, same manner as Experimental Example 1, read-out: IC50 values (ACC1 inhibitory activity)
[2] = Table 8, recombinant human ACC1, 30° C., absorbance 620 nm, read-out: IC50 (ACC1 inhibitory activity)
[3] = Experimental Example 4, same manner as Experimental Example 2, read-out: IC50 values (ACC2 inhibitory activity)
[4] = Table 9, recombinant human ACC2(Nd), N terminal deletion, 30° C., absorbance 620 nm, read-out: IC50 (ACC2 inhibitory activity)

T2 sequence (O00763 117-2458 limits assumed): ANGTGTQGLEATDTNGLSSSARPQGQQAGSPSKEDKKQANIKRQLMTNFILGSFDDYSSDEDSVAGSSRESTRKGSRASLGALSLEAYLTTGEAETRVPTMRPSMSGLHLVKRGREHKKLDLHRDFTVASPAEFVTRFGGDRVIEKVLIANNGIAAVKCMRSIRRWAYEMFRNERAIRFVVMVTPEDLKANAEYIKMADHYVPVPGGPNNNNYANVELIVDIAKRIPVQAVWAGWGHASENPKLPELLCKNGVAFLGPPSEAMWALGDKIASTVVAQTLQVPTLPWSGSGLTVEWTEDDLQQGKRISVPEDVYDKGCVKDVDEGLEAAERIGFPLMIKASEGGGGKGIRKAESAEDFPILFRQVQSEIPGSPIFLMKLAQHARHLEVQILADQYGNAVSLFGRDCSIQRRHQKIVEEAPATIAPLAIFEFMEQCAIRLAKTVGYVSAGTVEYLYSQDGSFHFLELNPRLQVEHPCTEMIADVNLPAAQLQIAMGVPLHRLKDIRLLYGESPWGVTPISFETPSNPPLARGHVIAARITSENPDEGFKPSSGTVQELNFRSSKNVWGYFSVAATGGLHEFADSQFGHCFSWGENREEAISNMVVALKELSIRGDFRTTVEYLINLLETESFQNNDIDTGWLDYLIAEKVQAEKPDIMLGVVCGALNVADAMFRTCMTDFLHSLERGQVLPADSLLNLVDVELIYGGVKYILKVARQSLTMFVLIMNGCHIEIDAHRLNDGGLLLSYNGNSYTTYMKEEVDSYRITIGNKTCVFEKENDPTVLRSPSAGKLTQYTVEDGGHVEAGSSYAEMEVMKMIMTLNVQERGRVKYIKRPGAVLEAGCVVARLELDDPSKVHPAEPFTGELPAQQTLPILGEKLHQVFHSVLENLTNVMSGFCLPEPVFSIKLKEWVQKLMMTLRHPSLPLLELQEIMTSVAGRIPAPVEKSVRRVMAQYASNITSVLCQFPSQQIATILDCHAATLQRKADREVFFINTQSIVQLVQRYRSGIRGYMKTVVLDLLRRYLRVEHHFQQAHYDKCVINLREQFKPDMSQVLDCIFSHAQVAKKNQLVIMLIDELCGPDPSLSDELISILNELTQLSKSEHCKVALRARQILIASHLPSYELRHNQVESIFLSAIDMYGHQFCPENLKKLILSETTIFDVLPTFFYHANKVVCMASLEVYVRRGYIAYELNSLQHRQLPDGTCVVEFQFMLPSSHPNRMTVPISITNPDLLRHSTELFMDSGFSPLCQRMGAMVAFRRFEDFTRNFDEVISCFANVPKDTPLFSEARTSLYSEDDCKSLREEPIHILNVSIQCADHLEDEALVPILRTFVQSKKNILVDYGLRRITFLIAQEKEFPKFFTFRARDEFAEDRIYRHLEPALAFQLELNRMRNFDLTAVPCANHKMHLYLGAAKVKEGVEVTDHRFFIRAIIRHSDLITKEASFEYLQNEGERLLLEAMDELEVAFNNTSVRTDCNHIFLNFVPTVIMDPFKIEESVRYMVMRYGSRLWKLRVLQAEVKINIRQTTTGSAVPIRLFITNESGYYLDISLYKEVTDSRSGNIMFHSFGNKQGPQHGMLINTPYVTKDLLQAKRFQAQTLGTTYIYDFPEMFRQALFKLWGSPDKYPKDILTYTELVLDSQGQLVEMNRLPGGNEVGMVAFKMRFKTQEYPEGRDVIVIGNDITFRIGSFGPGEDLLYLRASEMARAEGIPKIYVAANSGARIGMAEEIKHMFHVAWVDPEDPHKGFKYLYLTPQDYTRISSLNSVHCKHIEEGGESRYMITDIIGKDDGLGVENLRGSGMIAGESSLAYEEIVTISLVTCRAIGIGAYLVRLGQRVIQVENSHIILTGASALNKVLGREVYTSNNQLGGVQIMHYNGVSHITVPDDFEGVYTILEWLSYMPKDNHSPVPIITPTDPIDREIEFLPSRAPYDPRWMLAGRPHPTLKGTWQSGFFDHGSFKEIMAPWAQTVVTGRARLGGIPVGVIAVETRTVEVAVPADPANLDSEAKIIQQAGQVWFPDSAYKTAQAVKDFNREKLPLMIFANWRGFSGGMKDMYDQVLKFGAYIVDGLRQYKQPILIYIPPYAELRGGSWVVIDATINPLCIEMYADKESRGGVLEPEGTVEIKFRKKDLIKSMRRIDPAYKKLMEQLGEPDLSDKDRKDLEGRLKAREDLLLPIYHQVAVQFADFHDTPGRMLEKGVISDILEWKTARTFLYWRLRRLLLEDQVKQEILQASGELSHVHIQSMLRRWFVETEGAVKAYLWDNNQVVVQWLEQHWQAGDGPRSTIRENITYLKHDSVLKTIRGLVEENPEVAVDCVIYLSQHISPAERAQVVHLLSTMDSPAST

SMILES | IC50 (human ACC1; [1]) | IC50 (human ACC1; [2]) | IC50 (human ACC2; [3]) | IC50 (human ACC2; [4])
CC(=O)c1cccc(-c2cc(C(=O)N3CCC(N4CCCC5(C4)CC(C)(C)OC5=O)CC3)cc(-c3cccnc3)c2)c1 (centres unmarked) [Example 133, 7-{1-[(3′-acetyl-5-(pyridin-3-yl)biphenyl-3-yl)carbonyl]piperidin-4-yl]-3,3-dimethyl-2-oxa-7-azaspiro[4.5]decan-1-one] | – | 3300 nM | – | 120 nM
CCNC(=O)Nc1sc(-c2ccccn2)cc1C(=O)N1CCC(N2CCCC3(C2)CC(C)(C)OC3=O)CC1 (centres unmarked) [Example 179, 1-(3-{[4-(3,3-dimethyl-1-oxo-2-oxa-7-azaspiro[4.5]dec-7-yl)piperidin-1-yl]carbonyl}-5-(pyridin-2-yl)-2-thienyl)-3-ethylurea] | ≤ 100 nM | 140 nM | ≤ 10 nM | 9 nM
CCNC(=O)Nc1sc(-c2ccc(C(=O)O)cc2)cc1C(=O)N1CCC(N2CCCC3(C2)CC(C)(C)OC3=O)CC1 (centres unmarked) [Example 190, 4-(4-{[4-(3,3-dimethyl-1-oxo-2-oxa-7-azaspiro[4.5]dec-7-yl)piperidin-1-yl]carbonyl}-5-[(ethylcarbamoyl)amino]-2-thienyl)benzoic acid] | ≤ 100 nM | 80 nM | ≤ 10 nM | 9 nM
CCNC(=O)Nc1sc(-c2ccccn2)cc1C(=O)N1CCC(N2CCCC3(C2)OC(=O)N(CC)C3=O)CC1 (centres unmarked) [Example 245, 1-ethyl-3-(3-{[4-(3-ethyl-2,4-dioxo-1-oxa-3,7-diazaspiro[4.5]dec-7-yl)piperidin-1-yl]carbonyl}-5-(pyridin-2-yl)-2-thienyl)urea] | – | 980 nM | – | 46 nM
CCNC(=O)Nc1sc2ccccc2c1C(=O)N1CCC(N2CCCC3(C2)OC(=O)N(CC)C3=O)CC1 (centres unmarked) [Example 327, N-ethyl-N′-(3-{[4-(3-ethyl-2,4-dioxo-1-oxa-3,7-diazaspiro[4.5]dec-7-yl)piperidin-1-yl]carbonyl}-1-benzothien-2-yl)urea] | – | 200 nM | – | 19 nM
CCN1CCC2(CCCN(C3CCN(C(=O)c4c(NC(=O)NC)sc5ccccc45)CC3)C2)C1=O (centres unmarked) [Example 339, N-(3-{[4-(2-ethyl-1-oxo-2,7-diazaspiro[4.5]dec-7-yl)piperidin-1-yl]carbonyl}-1-benzothien-2-yl)-N′-methylurea] | – | 300 nM | – | 45 nM

Continued, values first:

IC50 (human ACC1; [1]) | IC50 (human ACC1; [2]) | IC50 (human ACC2; [3]) | IC50 (human ACC2; [4]) | SMILES
≤ 100 nM | 79 nM | ≤ 10 nM | 8 nM | CCNC(=O)Nc1sc2ccccc2c1C(=O)N1CCC(N2CCCC3(C2)CC(C)(C)OC3=O)CC1 (centres unmarked) [Example 36, N-(3-{[4-(3,3-Dimethyl-1-oxo-2-oxa-7-azaspiro[4.5]dec-7-yl)piperidin-1-yl]carbonyl}-1-benzothien-2-yl)-N′-ethylurea]
– | 4800 nM | – | 110 nM | CC1(C)CC2(CCCN(C3CCN(C(=O)c4cc(-c5cccnc5)nc5ccccc45)CC3)C2)C(=O)O1 (centres unmarked) [Example 92, 3,3-dimethyl-7-{1-[(2-(pyridin-3-yl)quinolin-4-yl)carbonyl]piperidin-4-yl}-2-oxa-7-azaspiro[4.5]decan-1-one]
– | 1600 nM | – | 76 nM | CC1(C)CC2(CN(C3CCN(C(=O)c4c5ccccc5cc5ccccc45)CC3)CCN2)C(=O)O1 (centres unmarked) [Example 153, 9-[1-(9-anthrylcarbonyl)piperidin-4-yl]-3,3-dimethyl-2-oxa-6,9-diazaspiro[4.5]decan-1-one]
– | 290 nM | – | 49 nM | CCN1C(=O)OC2(CCCN(C3CCN(C(=O)c4c(NC(N)=O)sc5ccccc45)CC3)C2)C1=O (centres unmarked) [Example 229, 1-(3-{[4-(3-ethyl-2,4-dioxo-1-oxa-3,7-diazaspiro[4.5]dec-7-yl)piperidin-1-yl]carbonyl}-1-benzothien-2-yl)urea]
– | 1400 nM | – | 89 nM | CCNC(=O)Nc1cnc(-c2ccccc2)cc1C(=O)N1CCC(N2CCCC3(C2)CC(C)(C)OC3=O)CC1 (centres unmarked) [Example 301, N-(4-{[4-(3,3-dimethyl-1-oxo-2-oxa-7-azaspiro[4.5]dec-7-yl)piperidin-1-yl]carbonyl}-6-phenylpyridin-3-yl)-N′-ethylurea]
– | 400 nM | – | 31 nM | CCNC(=O)Nc1sc2ccccc2c1C(=O)N1CCC(N2CCCC3(CC(=O)NC3=O)C2)CC1 (centres unmarked) [Example 311, N-(3-{[4-(1,3-dioxo-2,7-diazaspiro[4.5]dec-7-yl)piperidin-1-yl]carbonyl}-1-benzothien-2-yl)-W-ethylurea]
– | 260 nM | – | 31 nM | CC(C)N1C(=O)OC2(CCCN(C3CCN(C(=O)c4c(NC(N)=O)sc5ccccc45)CC3)C2)C1=O (centres unmarked) [Example 335, N-(3-{[4-(3-isopropyl-2,4-dioxo-1-oxa-3,7-diazaspiro[4.5]dec-7-yl)piperidin-1-yl]carbonyl}-1-benzothien-2-yl)urea]
